Reference: patent US10316017B2, “COT modulators and methods of use thereof” (Gilead Sciences, Inc., priority 2015, dated 2019)

Legend:
[1] = tested on: TNFα production in LPS-stimulated human monocytes; assay: Cot Monocyte TNFα Cell Based Assay; conditions: Homo sapiens, Monocyte, TNFα in LPS-stimulated human monocytes; read-out: EC50 TNF
How it was run: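 Cells at 5,000/well were pretreated with compound for 1 h at 37 °C (0.5% DMSO final), then stimulated with 50 pg/ml LPS for 4 h at 37 °C. Supernatant TNFα was measured by two-antibody TR-FRET after overnight room-temperature incubation; values are percent of control between unstimulated and stimulated wells.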

[2] = biological target: T1, human Cot catalytic domain (30-397 amino acids) (Homo sapiens, UniProt P41279); assay: High Throughput Cot Biochemical Assay (KinEASE TR-FRET); conditions: Cot biochemical HTRF (KinEASE TR-FRET) assay; read-out: IC50 HTRF
T1 construct: Purified recombinant human Cot catalytic domain (30-397 amino acids) was purchased from Cama Biosciences; purchased Cama Biosciences (so in the source)
T1 sequence (P41279 30-397): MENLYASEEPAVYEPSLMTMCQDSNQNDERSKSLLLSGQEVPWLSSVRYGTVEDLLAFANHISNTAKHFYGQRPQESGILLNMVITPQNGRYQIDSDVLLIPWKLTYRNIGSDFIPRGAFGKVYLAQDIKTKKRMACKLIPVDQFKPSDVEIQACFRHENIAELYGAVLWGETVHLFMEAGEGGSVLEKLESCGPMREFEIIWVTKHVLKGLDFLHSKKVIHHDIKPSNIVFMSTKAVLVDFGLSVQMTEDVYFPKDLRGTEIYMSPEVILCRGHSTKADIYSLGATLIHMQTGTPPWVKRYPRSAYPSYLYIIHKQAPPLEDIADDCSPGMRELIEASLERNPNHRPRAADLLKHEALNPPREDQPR
How it was run: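 Reaction of 5 nM recombinant human Cot catalytic domain (aa 30-397) with 1 μM STK3 peptide (XL665-labeled) and 400 μM ATP in 10 mM MOPS pH 7.0, 10 mM MgOAc, 1 mM DTT, 0.5 mg/mL BSA, 0.1% DMSO. Phosphopeptide detected by TR-FRET with europium anti-phospho antibody.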

| SMILES | EC50 [1] [nM] | IC50 [2] [nM] |
| --- | --- | --- |
| CC(C)(C)N1CCC(n2cc([C@@H](Nc3cc(Cl)c4ncc(C#N)c(NCC5CC5)c4c3)c3ccc(Cl)cc3)nn2)CC1 [Example 698, (S)-6-(((1-(1-(tert-butyl)piperidin-4-yl)-1H-1,2,3-triazol-4-yl)(4-chlorophenyl)methyl)amino)-8-chloro-4-((cyclopropylmethyl)amino) quinoline-3-carbonitrile] | 16100 | 317 |
| CC(Nc1c(C#N)cnc2c(Cl)cc(N[C@@H](c3ccc(Cl)cc3)c3cn(C4CCN(C(C)(C)C)CC4)nn3)cc12)c1cccnc1 (stereo partly drawn) [Example 699, 6-(((S)-(1-(1-(tert-butyl)piperidin-4-yl)-1H-1,2,3-triazol-4-yl)(4-chlorophenyl)methyl)amino)-8-chloro-4-((1-(pyridin-3-yl)ethyl)amino)quinoline-3-carbonitrile] | 10600 | 379 |
| N#Cc1cnc2c(Cl)cc(N[C@@H](c3ccc(Cl)cc3)c3cn(C4CCN(C5COC5)CC4)nn3)cc2c1Nc1ccc(O)c(Cl)c1 [Example 700, (S)-8-chloro-4-((3-chloro-4-hydroxyphenyl)amino)-6-(((4-chlorophenyl)(1-(1-(oxetan-3-yl)piperidin-4-yl)-1H-1,2,3-triazol-4-yl)methyl)amino) quinoline-3-carbonitrile] | 2240 | 444 |
| CC(C)(C)N1CCC(n2cc([C@@H](Nc3cc(Cl)c4ncc(C#N)c(Nc5ccc(O)c(Cl)c5)c4c3)c3ccc(Cl)cc3)nn2)CC1 [Example 701, (S)-6-(((1-(1-(tert-butyl)piperidin-4-yl)-1H-1,2,3-triazol-4-yl)(4-chlorophenyl)methyl)amino)-8-chloro-4-((3-chloro-4-hydroxyphenyl)amino) quinoline-3-carbonitrile] | 795 | 48 |
| CC(C)(C)N1CCC(n2cc([C@@H](Nc3cc(Cl)c4ncc(C#N)c(NC5CCC5)c4c3)c3ccc(Cl)cc3)nn2)CC1 [Example 702, (S)-6-(((1-(1-(tert-butyl)piperidin-4-yl)-1H-1,2,3-triazol-4-yl)(4-chlorophenyl)methyl)amino)-8-chloro-4-(cyclobutylamino)quinoline-3-carbonitrile] | 17600 | 314 |
| CC(C)(C)N1CCC(n2cc([C@@H](Nc3cc(Cl)c4ncc(C#N)c(NCCc5ccccc5)c4c3)c3ccc(Cl)cc3)nn2)CC1 [Example 703, (S)-6-(((1-(1-(tert-butyl)piperidin-4-yl)-1H-1,2,3-triazol-4-yl)(4-chlorophenyl)methyl)amino)-8-chloro-4-(phenethylamino)quinoline-3-carbonitrile] | 12000 | 95 |
| C[C@@H](Nc1c(C#N)cnc2c(Cl)cc(N[C@@H](c3ccc(Cl)cc3)c3cn(C4CCN(C(C)(C)C)CC4)nn3)cc12)c1ccccc1 [Example 704, 6-(((S)-(1-(1-(tert-butyl)piperidin-4-yl)-1H-1,2,3-triazol-4-yl)(4-chlorophenyl)methyl)amino)-8-chloro-4-(((R)-1-phenylethyl)amino)quinoline-3-carbonitrile] | 3510 | 37 |
| C[C@H](Nc1c(C#N)cnc2c(Cl)cc(N[C@@H](c3ccc(Cl)cc3)c3cn(C4CCN(C(C)(C)C)CC4)nn3)cc12)c1ccccc1 [Example 705, 6-(((S)-(1-(1-(tert-butyl)piperidin-4-yl)-1H-1,2,3-triazol-4-yl)(4-chlorophenyl)methyl)amino)-8-chloro-4-(((S)-1-phenylethyl)amino)quinoline-3-carbonitrile] | 12200 | 2830 |
| CC(C)(C)N1CCC(n2cc([C@@H](Nc3cc(Cl)c4ncc(C#N)c(NCc5ccccc5)c4c3)c3ccc(Cl)cc3)nn2)CC1 [Example 706, (S)-4-(benzylamino)-6-(((1-(1-(tert-butyl)piperidin-4-yl)-1H-1,2,3-triazol-4-yl)(4-chlorophenyl)methyl)amino)-8-chloroquinoline-3-carbonitrile] | 12800 | 95 |
| CC1(C)CC(n2cc([C@@H](Nc3cc(F)c4ncc(C#N)c(Nc5ccc(F)c(Cl)c5)c4c3)c3ccc(Cl)cc3)nn2)CC(C)(C)N1 [Example 707, (S)-4-((3-chloro-4-fluorophenyl)amino)-6-(((4-chlorophenyl)(1-(2,2,6,6-tetramethylpiperidin-4-yl)-1H-1,2,3-triazol-4-yl)methyl)amino)-8-fluoroquinoline-3-carbonitrile] | 3010 | 134 |
| N#Cc1cnc2c(F)cc(N[C@@H](c3ccc(Cl)cc3)c3cn(C4CCN(C5COC5)CC4)nn3)cc2c1Nc1ccc(F)c(Cl)c1 [Example 708, (S)-4-((3-chloro-4-fluorophenyl)amino)-6-(((4-chlorophenyl)(1-(1-(oxetan-3-yl)piperidin-4-yl)-1H-1,2,3-triazol-4-yl)methyl)amino)-8-fluoroquinoline-3-carbonitrile] | 533 | 103 |
| CC(C)(C)N1CCC(n2cc([C@@H](Nc3cc(F)c4ncc(C#N)c(Nc5ccc(F)c(Cl)c5)c4c3)c3ccc(Cl)cc3)nn2)CC1 [Example 709, (S)-6-(((1-(1-(tert-butyl)piperidin-4-yl)-1H-1,2,3-triazol-4-yl)(4-chlorophenyl)methyl)amino)-4-((3-chloro-4-fluorophenyl)amino)-8-fluoroquinoline-3-carbonitrile] | 307 | 18 |
| CC(C)n1cc([C@@H](Nc2cc(Cl)c3ncc(C#N)c(Nc4ccc(F)c(Cl)c4)c3c2)c2cccc(CN(C)CCN(C)C)c2)nn1 [Example 710, (S)-8-chloro-4-((3-chloro-4-fluorophenyl)amino)-6-(((3-(((2-(dimethylamino)ethyl)(methyl)amino)methyl)phenyl) (1-isopropyl-1H-1,2,3-triazol-4-yl)methyl)amino) quinoline-3-carbonitrile] | 352 | 20 |
| CC(C)n1cc([C@@H](Nc2cc(Cl)c3ncc(C#N)c(Nc4ccc(F)c(Cl)c4)c3c2)c2cccc(CNCCN(C)C)c2)nn1 [Example 711, (S)-8-chloro-4-((3-chloro-4-fluorophenyl)amino)-6-(((3-(((2-(dimethylamino)ethyl)amino)methyl)phenyl)(1-isopropyl-1H-1,2,3-triazol-4-yl)methyl)amino)quinoline-3-carbonitrile] | > 10000 | 46 |
| CC(C)n1cc([C@@H](Nc2cc(Cl)c3ncc(C#N)c(Nc4ccc(F)c(Cl)c4)c3c2)c2cccc(CN(C)C)c2)nn1 [Example 712, (S)-8-chloro-4-((3-chloro-4-fluorophenyl)amino)-6-(((3-((dimethylamino)methyl)phenyl)(1-isopropyl-1H-1,2,3-triazol-4-yl)methyl)amino)quinoline-3-carbonitrile] | 498 | 14 |
| CC(C)n1cc([C@@H](Nc2cc(Cl)c3ncc(C#N)c(Nc4ccc(F)c(Cl)c4)c3c2)c2cccc(CO)c2)nn1 [Example 713, (S)-8-chloro-4-((3-chloro-4-fluorophenyl)amino)-6-(((3-(hydroxymethyl)phenyl)(1-isopropyl-1H-1,2,3-triazol-4-yl)methyl)amino)quinoline-3-carbonitrile] | 358 | 17 |
